Laboratory results from BigSolDB 2.1.

COc1c(C(C)(C)C)cc([N+](=O)[O-])c(C)c1[N+](=O)[O-]
solubility (mole fraction)
Conditions	278.15 K	283.15 K	288.15 K	293.15 K	298.15 K	303.15 K	308.15 K	313.15 K	318.15 K
in DMAc	0.121	0.14	0.162	0.189	0.221	0.258	0.3	0.347	0.4
in DMF	0.0875	0.107	0.127	0.154	0.183	0.221	0.263	0.31	0.372
in THF	0.157	0.177	0.203	0.231	0.264	0.302	0.342	0.391	0.446
in acetonitrile	0.0355	0.0456	0.0608	0.0819	0.111	0.146	0.189	0.25	0.33
in ethanol	0.00359	0.0046	0.00594	0.00791	0.00992	0.0131	0.0164	0.0215	0.0276
in methanol	0.00266	0.00351	0.00447	0.00561	0.00719	0.00897	0.0112	0.0144	0.018
in n-butanol	0.00491	0.00673	0.0088	0.0111	0.0143	0.0192	0.0241	0.0308	0.0405
in n-propanol	0.00367	0.00463	0.00591	0.00789	0.0105	0.0137	0.0182	0.024	0.0311
